Experimental data as given in patent publication US8372811B2, “Composition for treating retinopathy or glaucoma comprising thrombin derived peptides” (Eyegene, Inc., priority 2007, dated 2013).
Entries after “also recorded” stand apart in the source; their conditions may differ. Non-standard residues stand in square brackets, D forms with d. No end group written: not given here.

Test system: mouse retinal angiogenesis
Assay: Mouse model for inducing retinal angiogenesis using oxygen partial pressure (75% oxygen, then normal 20%); FITC-dextran fluorescence microscopy of retina
Type: in vivo
Settings: intraperitoneally; for retinal blood vessels observed (Example 2): FIG. 4; for retinal blood vessels observed (Example 2) / retinal blood vessels observed (Example 3): dose not given; for effect compared between polypeptides SEQ ID NOs: 1, 2 and SEQ ID NO: 3 (Example 2): FIG. 4 versus FIG. 2; for retinal blood vessels observed (Example 3): FIG. 2 and FIG. 5
Experimental: For this purpose, a mouse was kept for 5 days under a high oxygen environment with a constant 75% oxygen partial pressure 7 days after the mouse was born in an apparatus that can adjust an oxygen partial pressure, and then kept under a 20% oxygen pressure which is a normal oxygen partial pressure. […] In order to observe the blood vessels, 50 mg of FITC-dextran having a molecular weight of 2×10^6 was dissolved in 1 ml of saline, and the resultant solution was injected through the left ventricle. The mouse eyeball was extracted immediately after the injection. The extracted eyeball was washed with saline, fixed with 1% paraformaldehyde for 4 to 24 hours, and then a lens was removed from the eyeball. Then, the resultant mouse retina was evenly spread over a glass slide, and the glass slide was sealed with glycerine-gelatin, and then observed using a fluorescence microscope. The degree on abnormal vessel, avascular lesion and vascular leakage caused by the retinopathy was digitalized and the retinopathy score was compared.

Substance | retinal blood vessels observed (Example 2) | effect compared between polypeptides SEQ ID NOs: 1, 2 and SEQ ID NO: 3 (Example 2) | effect compared with TP508 (SEQ ID NO: 3) (Example 3) | retinal blood vessels observed (Example 3)
Cyclo(-Arg-Gly-Asp-D-Phe-Val) (cyclo(RGD[dF]V)) [SEQ ID NO: 1] | normal angiogenesis is induced but abnormal angiogenesis is suppressed; also recorded: the abnormal angiogenesis was decreased and the normal blood vessels were observed | the same advantageous effect |  | 
DEGKRGDGDACEGDS [SEQ ID NO: 6, smaller peptide than the TP508; chemical synthesis] |  |  | had a similar effect as the TP508 | normal angiogenesis is induced but abnormal angiogenesis is suppressed and the vascular leakage is decreased; also recorded: the abnormal angiogenesis, avascular lesion and vascular leakage were decreased and the normal blood vessels were observed
Thrombin [SEQ ID NO: 4] |  |  | had a similar effect as the TP508 | normal angiogenesis is induced but abnormal angiogenesis is suppressed and the vascular leakage is decreased; also recorded: the abnormal angiogenesis, avascular lesion and vascular leakage were decreased and the normal blood vessels were observed
H-Gly-Phe-Gly-Arg-Gly-Asp-Ser-Pro-Cys-Ala-OH (H-GFGRGDSPCA-OH) [SEQ ID NO: 2] | normal angiogenesis is induced but abnormal angiogenesis is suppressed; also recorded: the abnormal angiogenesis was decreased and the normal blood vessels were observed | the same advantageous effect |  | 
